Measured values reported in patent US20060069132A1, “Azolecarboxamide herbicides” (priority 2004, published 2006).

Legend:
[1] = test system: smallflower umbrella sedge; assay: Test C flooded paddy test; type: in vivo, Cyperus difformis; details: for Plant response rating, Sedge, Umbrella: 500 g ai/ha, visual rating after 12 to 14 days
[2] = test system: cocklebur; assay: Test C pre-/postemergence herbicide test; type: in vivo, Xanthium strumarium
Method in brief: (§1)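 Seeds were planted and sprayed preemergence with test chemicals in a non-phytotoxic solvent mixture containing surfactant; postemergence treatments went onto plants 2 to 18 cm tall (1- to 4-leaf stage). After 12 to 14 days in a greenhouse, injury was rated visually against untreated controls on a 0–100 scale.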

[3] = test system: common (oilseed) sunflower; assay: Test C pre-/postemergence herbicide test; type: in vivo, Helianthus annuus; details: for Plant response rating (0 = no effect, 100 = complete control), Sunflower: 62 g ai/ha; for Plant response rating (0 = no effect, 100 = complete control), Sunflower / Plant response rating, Sunflower: preemergence; for Plant response rating, Sunflower: 125 g ai/ha, scale 0 (no effect) to 100 (complete control), visual, 12 to 14 days
Method in brief: as §1

[4] = test system: barnyardgrass; assay: Test C flooded paddy test; type: in vivo, Echinochloa crus-galli; details: for Plant response rating, Barnyardgrass: 500 g ai/ha, visual rating after 12 to 14 days
Method in brief: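 Postemergence sprays applied to plants 2 to 18 cm tall (1- to 4-leaf stage); paddy species grown to 2-leaf stage under flooding. After 12 to 14 days in greenhouse, visual rating versus untreated controls on 0–100 scale (0 no effect, 100 complete control).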

[5] = test system: yellow nutsedge; assay: Test C pre-/postemergence herbicide test; type: in vivo, Cyperus esculentus
Method in brief: as §1

[6] = test system: morningglory; assay: Test C pre-/postemergence herbicide test; type: in vivo, Ipomoea coccinea; set-up: key to Plant response rating, Morningglory: 0 = no effect, 100 = complete control
Method in brief: as §1

[7] = test system: rice; assay: Test B pre-/postemergence herbicide test; type: in vivo, Oryza sativa; details: preemergence
Method in brief: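 Formulation: non-phytotoxic solvent mix with surfactant. Timing: preemergence on seed and postemergence on 2–18 cm plants, applied concurrently. Readout after 13–15 d greenhouse: visual 0–100 control rating against controls.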

[8] = test system: velvetleaf; assay: Test C pre-/postemergence herbicide test; type: in vivo, Abutilon theophrasti
Method in brief: as §1

[9] = test system: soybean; assay: Test C pre-/postemergence herbicide test; type: in vivo, Glycine max
Method in brief: as §1

[10] = test system: pigweed; assay: Test C pre-/postemergence herbicide test; type: in vivo, Amaranthus retroflexus
Method in brief: as §1

[11] = test system: giant foxtail; assay: Test C pre-/postemergence herbicide test; type: in vivo, Setaria faberi
Method in brief: as §1

[12] = test system: bermudagrass; assay: Test C pre-/postemergence herbicide test; type: in vivo, Cynodon dactylon
Method in brief: as §1

[13] = 62 g ai/ha, scale 0 to 100 (0 no effect, 100 complete control)
[14] = 125 g ai/ha, scale 0 to 100 (0 no effect, 100 complete control)
[15] = 250 g ai/ha, scale of 0 to 100, 0 is no effect, 100 is complete control
[16] = scale 0 to 100 (0 no effect, 100 complete control)
[17] = 125 g ai/ha, scale 0 (no effect) to 100 (complete control), visual, 12 to 14 days, preemergence
[18] = 250 g ai/ha, scale 0 to 100 (0 no effect, 100 complete control), visual, 12 to 14 days, preemergence
[19] = Postemergence, 250 g ai/ha, scale 0 to 100, 0 no effect, 100 complete control
[20] = postemergence, 125 g ai/ha, scale 0 to 100
[21] = postemergence, 31 g ai/ha, scale 0 to 100
[22] = postemergence, 62 g ai/ha, scale 0 to 100
[23] = 125 g ai/ha, scale of 0 to 100, 0 is no effect, 100 is complete control
[24] = 500 g ai/ha, visual rating 0-100, 0 no effect, 100 complete control
[25] = 125 g ai/ha, 0 to 100 scale, 0 is no effect, 100 is complete control
[26] = Preemergence, 500 g ai/ha, scale 0 to 100, 0 no effect, 100 complete control

CCn1nc(C(C)(C)C)cc1C(=O)Nc1cccc(C#N)c1 [Compound 139]
Sedge, Umbrella plant response rating [1, 13]: 75
Sedge, Umbrella plant response rating [1, 14]: 80
Sedge, Umbrella plant response rating [1, 15]: 85
Plant response rating, Sedge, Umbrella [1, 16]: 85
Plant response rating (0 = no effect, 100 = complete control), Cocklebur ([2]; 62 g ai/ha, preemergence): 0
Plant response rating, Cocklebur [2, 17]: 0
Plant response rating, Cocklebur [2, 18]: 0
Plant response rating, Cocklebur [2, 19]: 10
Plant response rating, Cocklebur [2, 20]: 10
Plant response rating, Cocklebur [2, 21]: 5
Plant response rating, Cocklebur [2, 22]: 5
Plant response rating (0 = no effect, 100 = complete control), Sunflower [3]: 0
Plant response rating, Sunflower [3]: 10
Barnyardgrass plant response rating [4, 13]: 15
Barnyardgrass plant response rating [4, 23]: 40
Barnyardgrass plant response rating [4, 15]: 55
Plant response rating, Barnyardgrass [4, 16]: 65
Plant response rating, Nutsedge, Yellow ([5]; 31 g ai/ha, scale 0 to 100, last section of Table C, preemergence): 0
Plant response rating (0 = no effect, 100 = complete control), Nutsedge, Yellow ([5]; 62 g ai/ha, preemergence): 0
Plant response rating, Nutsedge, Yellow [5, 17]: 0
Plant response rating, Nutsedge, Yellow [5, 19]: 0
Plant response rating, Nutsedge, Yellow [5, 20]: 0
Plant response rating, Nutsedge, Yellow [5, 22]: 0
Plant response rating (0 = no effect, 100 = complete control), Morningglory ([6]; 62 g ai/ha, preemergence): 0
Plant response rating, Morningglory [6, 17]: 10
Plant response rating, Morningglory [6, 19]: 60
Plant response rating, Morningglory [6, 20]: 50
Plant response rating, Morningglory [6, 22]: 0
Plant response rating, Rice [7, 24]: 60
Plant response rating, Rice [7, 25]: 30
Plant response rating, Velvetleaf [8, 17]: 30
Plant response rating, Velvetleaf [8, 19]: 50
Plant response rating, Velvetleaf [8, 20]: 50
Plant response rating, Velvetleaf [8, 22]: 30
Plant response rating, Soybean [9, 17]: 10
Plant response rating, Soybean [9, 19]: 35
Plant response rating, Soybean [9, 20]: 30
Plant response rating, Soybean [9, 22]: 20
Plant response rating (0 = no effect, 100 = complete control), Pigweed ([10]; 62 g ai/ha, preemergence): 100
Plant response rating, Pigweed [10, 17]: 100
Plant response rating, Pigweed [10, 19]: 80
Plant response rating, Pigweed [10, 20]: 65
Plant response rating, Pigweed [10, 22]: 50
Plant response rating (0 = no effect, 100 = complete control), Foxtail, Giant ([11]; 62 g ai/ha, preemergence): 40
Plant response rating, Foxtail, Giant [11, 17]: 80
Plant response rating, Foxtail, Giant [11, 18]: 95
Plant response rating, Foxtail, Giant [11, 19]: 10
Plant response rating, Foxtail, Giant [11, 20]: 0
Plant response rating, Foxtail, Giant [11, 22]: 0
Plant response rating, Bermudagrass ([12]; 31 g ai/ha, scale 0 to 100, 0 no effect, 100 complete control, last section of Table C (species set of preemergence test)): 10
Plant response rating (0 = no effect, 100 = complete control), Bermudagrass ([12]; 62 g ai/ha, preemergence): 60
Plant response rating, Bermudagrass [12, 17]: 90
Plant response rating, Bermudagrass [12, 18]: 95
Plant response rating, Bermudagrass [12, 19]: 0
Plant response rating, Bermudagrass [12, 20]: 0
Plant response rating, Bermudagrass [12, 21]: 0
Plant response rating, Bermudagrass [12, 22]: 0

CCn1nc(C(C)(C)C)cc1C(=O)Nc1cc(C#N)ccc1F [Compound 140]
Sedge, Umbrella plant response rating [1, 13]: 0
Sedge, Umbrella plant response rating [1, 14]: 20
Sedge, Umbrella plant response rating [1, 15]: 45
Plant response rating, Sedge, Umbrella [1, 16]: 65
Plant response rating (0 = no effect, 100 = complete control), Cocklebur ([2]; 62 g ai/ha, preemergence): 0
Plant response rating, Cocklebur [2, 17]: 0
Plant response rating, Cocklebur [2, 18]: 0
Cocklebur plant response rating [2, 26]: 0
Plant response rating (0 = no effect, 100 = complete control), Sunflower [3]: 0
Plant response rating, Sunflower [3]: 0
Sunflower plant response rating [3, 26]: 0
Barnyardgrass plant response rating [4, 13]: 0
Barnyardgrass plant response rating [4, 23]: 0
Barnyardgrass plant response rating [4, 15]: 0
Plant response rating, Barnyardgrass [4, 16]: 15
Plant response rating (0 = no effect, 100 = complete control), Nutsedge, Yellow ([5]; 62 g ai/ha, preemergence): 0
Plant response rating, Nutsedge, Yellow [5, 17]: 0
Nutsedge, Yellow plant response rating [5, 26]: 0
Plant response rating (0 = no effect, 100 = complete control), Morningglory ([6]; 62 g ai/ha, preemergence): 0
Plant response rating, Morningglory [6, 17]: 0
Morningglory plant response rating [6, 26]: 0
Plant response rating, Rice [7, 24]: 70
Plant response rating, Rice [7, 25]: 0
Plant response rating, Velvetleaf [8, 17]: 0
Velvetleaf plant response rating [8, 26]: 20
Plant response rating (0 = no effect, 100 = complete control), Soybean ([9]; 62 g ai/ha, preemergence): 0
Soybean plant response rating [9, 26]: 0
Plant response rating (0 = no effect, 100 = complete control), Pigweed ([10]; 62 g ai/ha, preemergence): 100
Plant response rating, Pigweed [10, 17]: 100
Pigweed plant response rating [10, 26]: 100
Plant response rating (0 = no effect, 100 = complete control), Foxtail, Giant ([11]; 62 g ai/ha, preemergence): 0
Plant response rating, Foxtail, Giant [11, 17]: 25
Plant response rating, Foxtail, Giant [11, 18]: 65
Foxtail, Giant plant response rating [11, 26]: 85
Plant response rating (0 = no effect, 100 = complete control), Bermudagrass ([12]; 62 g ai/ha, preemergence): 0
Plant response rating, Bermudagrass [12, 17]: 0
Plant response rating, Bermudagrass [12, 18]: 60
Bermudagrass plant response rating [12, 26]: 85
